pEC50: −log10 of the molar value. Activity calls are given as the source filed them. No cut-off for these calls is given here.
Test system: 3T3-L1
Experiment: (§1) Activity at Insulin receptor in mouse 3T3-L1 cells assessed as glucose uptake
Format: cell-based

| Structure (SMILES) | Activity |
| --- | --- |
| O=C(Nc1cccc2cc(S(=O)(=O)O)ccc12)c1cc(NC(=O)C2CCCCC2)cc(C(=O)Nc2cccc3cc(S(=O)(=O)O)ccc23)c1 | inactive |
| O=C(Cc1cccc(Cl)c1)Nc1cc(C(=O)Nc2cccc3cc(S(=O)(=O)O)ccc23)cc(C(=O)Nc2cccc3cc(S(=O)(=O)O)ccc23)c1 | inactive |
| O=C(Nc1cccc2cc(S(=O)(=O)O)ccc12)c1cc(NC(=O)c2cnc3ccccc3n2)cc(C(=O)Nc2cccc3cc(S(=O)(=O)O)ccc23)c1 | inactive |
| O=C(Nc1cccc(Cl)c1)Nc1cc(C(=O)Nc2cccc3cc(S(=O)(=O)O)ccc23)cc(C(=O)Nc2cccc3cc(S(=O)(=O)O)ccc23)c1 | inactive |
| O=C(Nc1cc(C(=O)Nc2cccc3cc(S(=O)(=O)O)ccc23)cc(C(=O)Nc2cccc3cc(S(=O)(=O)O)ccc23)c1)c1ccc([N+](=O)[O-])cc1 | inactive |
| O=C(Nc1cc(C(=O)Nc2cccc3cc(S(=O)(=O)O)ccc23)cc(C(=O)Nc2cccc3cc(S(=O)(=O)O)ccc23)c1)c1cccnc1 | inactive |
| O=C(Nc1cc(C(=O)Nc2cccc3cc(S(=O)(=O)O)ccc23)cc(C(=O)Nc2cccc3cc(S(=O)(=O)O)ccc23)c1)c1ccncc1 | inactive |
| O=C(Nc1cccc2cc(S(=O)(=O)O)ccc12)c1cc(NC(=O)c2ccco2)cc(C(=O)Nc2cccc3cc(S(=O)(=O)O)ccc23)c1 | inactive |
| O=C(Nc1cccc2cc(S(=O)(=O)O)ccc12)c1cc(NS(=O)(=O)c2ccc(F)cc2)cc(C(=O)Nc2cccc3cc(S(=O)(=O)O)ccc23)c1 | inactive |

Test system: not listed separately
Experiment: as §1
Format: cell-based

| pEC50 | Structure (SMILES) |
| --- | --- |
| 4.14 | O=C(Nc1cc(C(=O)Nc2cccc3cc(S(=O)(=O)O)ccc23)cc(C(=O)Nc2cccc3cc(S(=O)(=O)O)ccc23)c1)c1ccc(Cl)cc1 |
| 4.11 | O=C(Nc1cc(C(=O)Nc2cccc3cc(S(=O)(=O)O)ccc23)cc(C(=O)Nc2cccc3cc(S(=O)(=O)O)ccc23)c1)c1ccc(F)cc1 |
| 5.43 | O=C(Nc1cc(C(=O)Nc2cccc3cc(S(=O)(=O)O)ccc23)cc(C(=O)Nc2cccc3cc(S(=O)(=O)O)ccc23)c1)c1ccc2ccccc2c1 |
| 5.24 | O=C(Nc1cc(C(=O)Nc2cccc3cc(S(=O)(=O)O)ccc23)cc(C(=O)Nc2cccc3cc(S(=O)(=O)O)ccc23)c1)c1cccc(Cl)c1 |
| 4.71 | O=C(Nc1cc(C(=O)Nc2cccc3cc(S(=O)(=O)O)ccc23)cc(C(=O)Nc2cccc3cc(S(=O)(=O)O)ccc23)c1)c1cccc(F)c1 |
| 4.89 | O=C(Nc1cccc2cc(S(=O)(=O)O)ccc12)c1cc(NC(=O)c2cccc3ccccc23)cc(C(=O)Nc2cccc3cc(S(=O)(=O)O)ccc23)c1 |
| 4.35 | O=C(Nc1cc(C(=O)Nc2cccc3cc(S(=O)(=O)O)ccc23)cc(C(=O)Nc2cccc3cc(S(=O)(=O)O)ccc23)c1)c1cccc([N+](=O)[O-])c1 |

Further lines, the compound ahead of its results:

| Structure (SMILES) | pEC50 |
| --- | --- |
| O=C(Nc1cc(C(=O)Nc2cccc3ccccc23)cc(C(=O)Nc2cccc3cc(S(=O)(=O)O)ccc23)c1)c1cccc(Cl)c1 | 4.18 |
| O=C(Nc1cccc2cc(S(=O)(=O)O)ccc12)c1cc(C(=O)Nc2cccc3cc(S(=O)(=O)O)ccc23)cc(C(=O)Nc2cccc3cc(S(=O)(=O)O)ccc23)c1 | 3.87 |
| O=C(Nc1cc(C(=O)Nc2cccc3cc(O)ccc23)cc(C(=O)Nc2cccc3cc(S(=O)(=O)O)ccc23)c1)c1cccc(Cl)c1 | 4.21 |
| O=C(Nc1ccc2c(O)c(/N=N/c3ccc(/N=N/c4ccc(S(=O)(=O)O)cc4)cc3S(=O)(=O)O)c(S(=O)(=O)O)cc2c1)Nc1ccc2c(O)cc(S(=O)(=O)O)c(/N=N/c3ccc(/N=N/c4ccc(S(=O)(=O)O)cc4)cc3S(=O)(=O)O)c2c1 | 4.05 |
